Data reported in a melting point compilation (Tetko et al.; mined from patent text by program, amines drawn as free bases though some values may be those of a salt).

| SMILES | melting point [°C] |
| --- | --- |
| CCOC(=O)NC(CCc1ccccc1)P(=O)(CC(=O)O)OCc1ccccc1 (stereo not drawn) | 151 to 153 |
| O=C(/C=C/[C@@H]1[C@H]2CC(=O)O[C@H]2C[C@H]1OC(=O)c1ccccc1)COc1ccccc1 | 132 |
| COC(=O)C=CC=CCSc1ccc(Cl)cc1 | 75 to 77 |
| CC(C)(CO)c1ccc(C(=O)Nc2cn3cc(Cl)ccc3n2)cc1 | 240 to 242 |
| COc1ccc(Cn2c3ncnc4c(ncn4Cc4ccc(OC)cc4)c-3nc2=O)cc1 | 175 to 177 |
| CN(SC(Cl)(Cl)Cl)C(=O)ON=C1SCC(=O)NC1(C)C | 189 to 190 |
| CC(=O)NC(C)Cc1ccc(CCC(=O)O)cc1 (stereo not drawn) | 93 to 96 |
| COc1cc(OC)nc(C2OC(=O)c3c(-c4ccccc4)ccnc32)n1 (stereo not drawn) | 151 to 154 |
| CC1(C)c2cc(OS(C)(=O)=O)ccc2OC1N1CCCCC1 (stereo not drawn) | 97 to 98 |
| CSc1c([N+](=O)[O-])c2cc(Cl)ccc2[nH]c1=O | 213 |
| CCOP(=O)(OCC)c1nc(NC(C)C)nc(NC(C)C)n1 | 91 to 94 |
| CC1Cc2cc3c(cc2C(c2ccc([N+](=O)[O-])cc2)=NN1C(=O)CCCN)OCO3 (stereo not drawn) | 110 to 112 |
| c1cnc2ccc(Cn3nnc4ccc(-c5cnn(C6CCOCC6)c5)nc43)cc2c1 | 182 to 184 |
| CCN(CC)C(=O)Nc1ccc2oc3c(c2c1)CCCC3 | 179 to 180 |
| N#Cc1cccc2c1OCCN2 | 79 to 80 |
| Nc1ccc(N2CCN(CCCC(=O)c3ccc(F)cc3)CC2)nc1N | 128 to 130 |
| COc1ccc(N2C(=O)C(C)N(c3ccc(Oc4ccc(O)cc4)cc3)C2=S)cc1 (stereo not drawn) | 196 to 198 |
| O=C1CC2(CCCC2)C(=O)N1c1ccncc1 | 100 to 103 |
| Cc1cccc(NC(=O)c2ccccc2SSc2ccccc2C(=O)Nc2cccc(C)c2)c1 | 193 to 195 |
| Cc1c2c(c(C(O)c3ccc(C(C)C)cc3)c(C)c1NC(=O)OC(C)(C)C)OC(C)C2 (stereo not drawn) | 141 to 142 |
| Cc1ccc2c(O)cc(=O)oc2c1 | 179 to 182 |
| COC(=O)N[C@@H]1CCc2ccc(Br)cc2C1 | 99 to 100 |
| CC(=O)N1CC(C)(C)c2c1cc(C)c(O)c2C | 173 to 174 |
| O=C(O)c1ccc(-c2nc(-c3ccccc3C(F)(F)F)cs2)cc1 | 225 to 227 |
| Clc1ccc(COCCOc2ccc(-c3ccccc3)cc2)cc1 | 85 to 87 |
| CCCCCCCCCCCCCCc1ccc(CCCCCC)c(O)c1 | 43 to 45 |

| SMILES | melting point [°C] |
| --- | --- |
| CCCC(=O)c1cc2c(=O)cc(C(=O)OC)[nH]c2c(C)c1C | 157 to 159 |
| COc1ccc(COC(=O)CCc2nc(-c3ccc(Cl)cc3)co2)cc1 | 69 to 70 |
| Cc1c(C)c2c(c(C)c1NC(=O)CC(C)(C)C)C(c1ccccc1)C(C)(C)O2 (stereo not drawn) | 214 to 215 |
| BrCc1c(Br)csc1Br | 89 to 90 |
| Nc1ncnc2c1c(-c1cc(O)cc(F)c1)nn2Cc1oc2ccccc2c(=O)c1-c1ccccc1 | 260 to 262 |
| CC(=O)NNc1ccc([N+](=O)[O-])cc1 | 207 to 209 |
| COc1ccc(C(=O)c2ccc(F)cc2F)c(Cl)c1Cl | 139 to 141 |
| CC(=O)Nc1cnn2cnc3ccccc3c12 | 256 to 258 |
| CC1(C)CC(OC(=O)c2ccccc2)CC(C)(C)N1C#N | 150 to 152 |
| CCCCCCCCCCCOc1ccc(O)cc1C=O | 66 to 67 |
| CN1CC=C(c2c[nH]c3ccc([N+](=O)[O-])cc23)C(F)C1 (stereo not drawn) | 94 to 96 |
| Cn1ccnc1Sc1ccc(Nc2c(C#N)cnc3cc(-c4ccc(CN5CCOCC5)cc4)ccc23)cc1Cl | 148 to 150 |
| COc1cccc(Sc2ccc3c(c2)CC[C@H]2NC(=O)CC[C@]32C)c1 | 154 to 156 |
| Cc1cccc(C(=O)c2[nH]c3cc(Cl)ccc3c2NC(=O)N(C)C)c1 | 198 to 200 |
| CC1=C(C(=O)OC(C)C)C(c2ccccc2F)c2c[nH]nc2N1 (stereo not drawn) | 218 to 220 |
| COc1ccc(/C(=C\C=O)c2ccccc2OC)cc1 | 92 to 94 |
| CC(=O)OC1CCN(c2c(F)cc3c(=O)c(C(=O)O)cn4c3c2CCC4C)CC1 (stereo not drawn) | 250 to 253 |
| NC(=O)CNC(=O)c1cccc(-c2ccc(F)c3cc(Cc4ccc(F)c(F)c4)sc23)c1 | 161 to 162 |
| CC(=CCCC(C)C1CCC2(C)C3=CCC4C(C)(C)C(=O)CCC4(C)C3=CCC12C)CO (stereo not drawn) | 75 to 80 |
| COC(=O)CN(N)CC(=O)OC | 166 |
| COc1ccc(Cl)c(C)c1C=O | 86 to 88 |
| CCn1cc(Cl)nc(S)c1=O | 142 to 144 |
| Cc1cc(N)n(-c2c(Cl)cc(Cl)cc2Cl)n1 | 132 to 134 |
| CC(C)COC(=O)Nc1ccc(C2(O)CCSCC2)cc1 | 150 to 151 |
| COc1cc(N)c(SC)cc1OC | 72 to 74 |
| CC1NC(=O)NN=C1c1ccccc1OCc1ccccc1 (stereo not drawn) | 200 to 203 |

| SMILES | melting point [°C] |
| --- | --- |
| CC(C)(O)CC1NC(=O)c2ccccc21 (stereo not drawn) | 122 to 123 |
| O=[N+]([O-])c1ccc(Cl)nc1N1CCNCC1 | 50 to 53 |
| CC1=C(C(=O)OC(C)(C)C)C(c2ccccc2F)C(C(=O)OC(C)(C)C)=C(C)N1 | 201 to 202 |
| Cc1ccc(C(=O)Nc2ccc(-n3ccnc3C)c(C(F)(F)F)c2)cc1Nc1nccc(-c2cccnc2)n1 | 154 to 163 |
| Cc1cc(C(=O)N2CCCC(C)C2)ccc1[N+](=O)[O-] (stereo not drawn) | 82 to 82.8 |
| CN(C)c1ccc(N=Nc2ccccc2C(=O)NCCNC(=O)OC(C)(C)C)cc1 | 131 to 134 |
| FC(F)(F)Sc1ccc2c(c1)C(=C1CCN(CC3CC3)CC1)c1ccccc1C=C2 | 143 to 144 |
| Cc1oc(-c2ccc(C(F)(F)F)cc2)nc1COc1cccc(CN(O)C(N)=O)c1 | 125 to 126 |
| CC(=O)CSc1nc2ccccc2[nH]1 | 112 to 113 |
| Cn1nnc(-c2ccc3c(c2)c(C2CCN(CCN4CCNC4=O)CC2)cn3-c2ccncc2)n1 | 204 to 206 |
| CNc1nc(OC)ccc1[N+](=O)[O-] | 152 to 153 |
| COc1ccc(C(O)(C2CC2)C2CC2)c2c1nc1n2CCCN1c1ccc(Cl)cc1Cl | 219 to 220 |
| CN(Cc1ccc(NC(=O)C2=Cc3cc(-c4ccc(C(F)(F)F)cc4)ccc3OCC2)cc1)C1CCOCC1 | 205 to 209 |
| CC(=O)c1ccc2c(c1O)CC(S(C)(=O)=O)CO2 (stereo not drawn) | 158 to 162 |
| Nc1nc(-c2ccc(NC(=O)CN(Cc3ccccc3)S(=O)(=O)N3CCOCC3)cc2)cs1 | 193 to 194 |
| COc1ccc(-c2c(C)nc(N)nc2C2CCN(C(=O)c3ccccc3)CC2)cc1 | 226 to 227 |
| CCOC(=O)[C@H](CCc1ccccc1)N[C@@H](C)C(=O)N1C(=O)N(Cc2ccccc2)C[C@H]1C(=O)O | 56 to 57 |
| CCOC(=O)c1cccc2c1CCc1cc(O)ccc1S2 | 125 to 129 |
| Cc1cccc(-c2c3c(cc4ccc(O)cc24)-c2ccc(O)cc2CO3)c1 | 219 to 222 |
| COC(=O)c1cccnc1C(=O)c1ccccc1 | 74 |
| O=S1(=O)N=C(NC2CCCC2)Nc2sc(Cl)cc21 | 280 to 282 |
| CCCCCCCCCCCCCCCCCCNC(=O)OCC(CN(C(C)=O)S(=O)(=O)CCCCl)NC(C)=O (stereo not drawn) | 116 to 117 |
| COC(=O)c1ccc(N2CCNCC2)cc1 | 95 to 97 |
| CN1c2ccc(CC(=O)O)cc2CCC1c1ccccc1 (stereo not drawn) | 110 to 111 |
| COc1ccc(-c2cc3c(n2CCN(C)C)CCCC3)cc1 | 81 to 82 |
| Cc1cc(Oc2cccc(C(F)(F)F)c2)nn1C(=O)Nc1cc(OC2CCCC2)c(Cl)cc1F | 81 to 83 |

| SMILES | melting point [°C] |
| --- | --- |
| CC(C)(Nc1cccc(C(=N)N)c1)C(=O)Nc1ccc(-c2ccccc2S(N)(=O)=O)cc1 | 197 |
| Cc1oc(-c2cccc(Br)c2)nc1CCOc1ccc(OC(C)(C)C(=O)O)cc1 | 158 to 159 |
| COc1ccc(C(O)CNC(C)CCc2ccccc2)cc1C(N)=O (stereo not drawn) | 110 to 148 |
| COc1cccc(CC(=O)O)c1OCc1cc(OC(C)C)nn1Cc1ccc2ccccc2n1 | 129 to 130 |
| O=C(/C=C/c1ccc(O)c(C(F)(F)F)c1)/C=C/c1ccc(O)c(C(F)(F)F)c1 | 233 to 234 |
| CC(CCCCCCNC(=O)c1ccc(OC(F)(F)F)cc1)NC(=O)c1ccc(OC(F)(F)F)cc1 (stereo not drawn) | 137 to 138 |
| O=C(Nc1ccc(C(F)(F)F)cc1)C1=NN(c2ccccc2)CC1c1ccc(F)cc1 (stereo not drawn) | 184 |
| CCOC(=O)C1=C(N)C(NCC(O)COCc2cccc(CN3CCCCC3)c2)=NS1(=O)=O (stereo not drawn) | 72 to 74 |
| C=CCN1CCCNC1=C[N+](=O)[O-] | 125 to 126 |
| COC(=O)n1c(Cl)nc2c(C)cccc21 | 90 to 91 |
| COC(=O)c1cc(-c2ccc(Cl)cc2)nn1Cc1ccc(Cl)cc1Cl | 120 |
| CN1CCC/C1=C\c1nc(-c2ccc(F)cc2)c(-c2ccncc2)n1CCCc1ccccc1 | 171 to 172 |
| CN(C)NC(=O)c1nc([N+](=O)[O-])cn1C | 154 |
| Nc1ccc(C(=O)N2Cc3ccccc3CC3=C2C=CC(Cl)C3)cc1 (stereo not drawn) | 211 to 214 |
| Cc1nn(-c2ccccn2)c2c1C(=O)CC(C)(C)C2S(=O)(=O)c1ccccc1 (stereo not drawn) | 165 to 166 |
| O=S1(=O)N=C(NCCCOc2cccc(CN3CCCCC3)c2)c2ccc(F)cc21 | 139 to 163 |
| NNC(=O)C(=O)N(N)C(=O)c1ccccc1 | 226 |
| OCCCCc1cc(-c2ccc(C(F)(F)F)cc2)no1 | 68 to 69 |
| O=c1cc(NCC2CCCO2)oc2c1ccc1ccccc12 (stereo not drawn) | 139 to 140 |
| Cc1nc2cnccc2n1-c1ccc(OCc2cccc(C(=O)O)c2)cc1 | 255 to 258 |
| O=C(O)c1cn(-c2ccc(F)cc2)c2c(F)c(N3Cc4cccc(Cl)c4C3)c(F)cc2c1=O | 283 to 291 |
| O=C(c1cc2cccc(NS(=O)(=O)c3cccs3)c2[nH]1)N1CCCC1 | 248 to 249 |
| COc1ccc(C(O)C(CO)[N+](=O)[O-])cc1OC (stereo not drawn) | 134 to 138 |
| C[C@]12CCC(=O)C=C1CCc1cc(Cl)ccc12 | 94 to 96 |
| CCCc1ccccc1OCCCOc1ccc2c(=O)cc(C(N)=O)oc2c1 | 210 to 213 |
